The text below walks through data of patent US10071973B2, “Crystalline isoxazole hydroxamic acid compounds” (priority 2016, dated 2018).

A short description of series [1]: Hygroscopicity: mass change with relative humidity / deliquescence. It counts as physicochemical. The following applies: for hygroscopicity / deliquescence (in words): exposed to air or humidity, amorphous: humidity of about 80% or higher. The procedure:
FIG. 4. Isotherm Plots showing reversible mass changes of Crystalline Compound A over a Relative Humidity range of 0-90%.
Primary soller slit 2.5°; secondary soller slit 2.5°; divergent slit 0.6 mm; antiscatter slit 5.0 mm.

A short description of series [2]: Stability (colour) of the solid on standing at ambient temperature. Conditions: ambient / room temperature, over time. It counts as physicochemical. From the text: This material required special handling and was not considered suitable for development as a pharmaceutical.
Series [3] has as its system P.A. PAO1 NB52019. The series can be described thus: MIC by broth microdilution (CLSI), P. aeruginosa. The format is cell-based. Conditions: Pseudomonas aeruginosa, 35° C., 20 hours. Here is the method:
(§1) Bacterial isolates were cultivated from −70° C. frozen stocks by two consecutive overnight passages at 35° C. in ambient air on 5% blood agar (Remel, Lenexa, Kans.). Quality control strain, P. aeruginosa ATCC 27853, A. baumannii ATCC19606 and E. coli ATCC 25922 are from the American Type Culture Collection (ATCC; Rockville, Md.) and PAO1 was received from Dr. K. Poole.
(§2) Minimal Inhibitory Concentrations (MICs) were determined by the broth microdilution method in accordance with Clinical and Laboratories Institute (CLSI) guidelines (CLSI M100-S25, Performance Standards for Antimicrobial Susceptibility Testing; Twenty-fifth Informational Supplement). In brief, fresh bacterial overnight cultures were resuspended in sterile saline, adjusted to a 0.5 McFarland turbidity standard and then diluted 2000-fold in cation adjusted Mueller-Hinton Broth II (MHB; Remel BBL) to yield a final inoculum of approximately 5×10^5 colony-forming units (CFU)/mL. […] Following incubation, assay plates were read in a microtiter plate reader at 600 nm and visually inspected to confirm the MIC endpoint well with the OD value. The lowest concentration of the compound that prevented visible growth was recorded as the MIC. Performance of the assay was monitored by testing ciprofloxacin against the laboratory quality control strain in accordance with guidelines of the CLSI.
For orientation: Broth dilution looks for growth in wells or tubes with falling amounts of substance.

For series [4], the system named is E. coli ATCC 25922. The experiment in a line: MIC by broth microdilution (CLSI), E. coli, alone and with rifampicin. It counts as cell-based. The following applies: Escherichia coli. Here is the method:
as §1, §2

The subject of series [5] is A. baumannii ATCC19606. The series can be described thus: MIC by broth microdilution (CLSI), A. baumannii, alone and with rifampicin. The format is cell-based. The following applies: Acinetobacter baumannii. Here is the method:
as §1, §2

Molecules are shown by their SMILES. “Also recorded” adds a separate entry of the source. Read-outs that look alike come from different tables or passages of the source.

Consider `C[C@@](CCc1cc(C#CC2CC2)on1)(C(=O)NO)S(C)(=O)=O` [crystalline Compound (A), (R)-4-(5-(cyclopropylethynyl)isoxazol-3-yl)-N-hydroxy-2-methyl-2-(methylsulfonyl)butanamide], for which the “mass increase (hygroscopicity)” value in series [1] (RH=90%) is given as 3.2%; in series [1] (relative humidity (RH) of 80%), 1.3%. Also, the “hygroscopicity / deliquescence (in words)” value in series [1] was “low hygroscopicity”.
For the molecule `C[C@@](CCc1cc(C#CC2CC2)on1)(C(=O)NO)S(C)(=O)=O` [amorphous Compound (A), (R)-4-(5-(cyclopropylethynyl)isoxazol-3-yl)-N-hydroxy-2-methyl-2-(methylsulfonyl)butanamide], in series [1], the “hygroscopicity / deliquescence (in words)” value is recorded as “significantly deliquescent”. The “colour stability on standing” value in series [2] is “developed a brownish color over time; also recorded: tended to darken on standing at ambient temperature”.
Consider `C[C@@](CCc1cc(C#CC2CC2)on1)(C(=O)NO)S(C)(=O)=O` [A, (R)-4-(5-(cyclopropylethynyl)isoxazol-3-yl)-N-hydroxy-2-methyl-2-(methylsulfonyl)butanamide], for which the MIC is 0.25 µg/mL in series [3]; at most 0.06 µg/mL in series [4] (ATCC 25922 / ATCC 29522, in presence of 2 μg/ml rifampicin, read-out: E.C. ATCC 29522 (+2 μg/ml RIF) MIC); 2 µg/mL in series [4] (ATCC25922, broth microdilution, 35° C., 20 hours, read-out: E.C. ATCC 25922 MIC); over 64 µg/mL in series [5] (broth microdilution, 35° C., 20 hours, read-out: A.B. ATCC 19606 MIC); 0.125 µg/mL in series [5] (in presence of 2 μg/ml rifampicin, read-out: A.B. ATCC 19606 (+2 μg/ml RIF) MIC).
